Results from PubChem BioAssay (NCI).
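How tested: cells in 96-well plates exposed to compound for 48 hours at five concentrations. TGI: concentration producing complete growth inhibition.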

Key:
Assay in all cases: DTP human tumour cell line panel, 48 h
[1] = tested on: OVCAR-4 ovarian
[2] = tested on: HL-60(TB) leukemia
[3] = tested on: SNB-75 CNS
[4] = tested on: CCRF-CEM leukemia
[5] = tested on: HT29 colon
[6] = tested on: EKVX NSCLC
[7] = tested on: SK-MEL-5 melanoma
[8] = tested on: M14 melanoma
[9] = tested on: SF-295 CNS
[10] = tested on: U251 CNS
[11] = tested on: A498 renal
[12] = tested on: SW-620 colon
[13] = tested on: SF-539 CNS
[14] = tested on: HS 578T breast
[15] = tested on: PC-3 prostate
[16] = tested on: SNB-19 CNS
[17] = tested on: KM12 colon
[18] = tested on: SN12C renal
[19] = tested on: NCI-H522 lung

Work on Cc1cccc(NC(=S)Nc2ccc([N+](=O)[O-])cc2)n1 yielded a TGI [1] greater than 100 µM, a TGI [2] greater than 100 µM and a TGI [3] greater than 100 µM. It also gave a TGI [4] greater than 100 µM, a TGI [5] greater than 100 µM and a TGI [6] greater than 100 µM. It also gave a TGI [7] greater than 100 µM, a TGI [8] greater than 100 µM and a TGI [9] greater than 100 µM. For the same molecule, the TGI [10] was greater than 100 µM, the TGI [11] was greater than 100 µM and the TGI [12] was greater than 100 µM. For the same molecule, the TGI [13] was greater than 100 µM, the TGI [14] was greater than 100 µM and the TGI [15] was greater than 100 µM. For the same molecule, the TGI [16] was greater than 100 µM and the TGI [17] was greater than 100 µM.
Work on O=Nc1c(-c2c(O)[nH]c3ccccc23)[nH]c2ccccc12 yielded a TGI [1] of 34.1 µM, a TGI [2] of 12.3 µM and a TGI [3] of 16.5 µM. It also gave a TGI [4] of 29.7 µM, a TGI [5] greater than 57.8 µM and a TGI [6] of 9.12 µM. The TGI [7] was 26.4 µM, the TGI [8] was 25.9 µM and the TGI [9] was 99.2 µM. It also gave a TGI [10] greater than 65.4 µM, a TGI [18] of 13.3 µM and a TGI [11] of 13.9 µM. For the same molecule, the TGI [12] was greater than 100 µM, the TGI [13] was greater than 100 µM and the TGI [14] was greater than 29.1 µM. For the same molecule, the TGI [19] was 20.9 µM, the TGI [15] was 28.1 µM and the TGI [16] was greater than 100 µM. The TGI [17] was greater than 38.7 µM.
Molecule CC(C)(C)N1C(=O)c2ccccc2C1(O)C(F)(F)F (stereo not given) has a TGI [1] greater than 100 µM, a TGI [2] greater than 100 µM and a TGI [3] greater than 100 µM. The TGI [4] was greater than 100 µM, the TGI [5] was greater than 100 µM and the TGI [6] was greater than 100 µM. The TGI [7] was greater than 100 µM, the TGI [8] was greater than 100 µM and the TGI [9] was greater than 100 µM. It also gave a TGI [10] greater than 100 µM, a TGI [18] greater than 100 µM and a TGI [11] greater than 100 µM. It also gave a TGI [12] greater than 100 µM, a TGI [13] greater than 100 µM and a TGI [14] of 97.8 µM. The TGI [19] was greater than 100 µM, the TGI [15] was greater than 100 µM and the TGI [16] was greater than 100 µM. For the same molecule, the TGI [17] was greater than 100 µM.
For Cc1nnc2sc(Cl)nn12, the TGI [1] was 34.3 µM, the TGI [3] was greater than 100 µM and the TGI [4] was 26.4 µM. It also gave a TGI [5] of 32.9 µM, a TGI [6] of 43.9 µM and a TGI [7] of 25.2 µM. It also gave a TGI [8] of 28.1 µM, a TGI [9] of 36.2 µM and a TGI [10] of 31.4 µM. The TGI [18] was greater than 100 µM, the TGI [11] was greater than 100 µM and the TGI [12] was 16.6 µM. For the same molecule, the TGI [13] was 47.1 µM, the TGI [14] was greater than 100 µM and the TGI [19] was 23.9 µM. For the same molecule, the TGI [15] was 47.2 µM, the TGI [16] was greater than 100 µM and the TGI [17] was 28.6 µM.
Work on CCN(CC)C(=S)SNc1ccc(S(N)(=O)=O)cc1 yielded a TGI [1] greater than 100 µM, a TGI [2] greater than 100 µM and a TGI [3] greater than 100 µM. The TGI [5] was greater than 54.6 µM, the TGI [6] was greater than 100 µM and the TGI [7] was greater than 100 µM. It also gave a TGI [8] greater than 67.7 µM, a TGI [9] greater than 100 µM and a TGI [10] greater than 100 µM. For the same molecule, the TGI [18] was greater than 100 µM, the TGI [11] was greater than 100 µM and the TGI [12] was 19.3 µM. For the same molecule, the TGI [13] was greater than 100 µM, the TGI [14] was greater than 100 µM and the TGI [19] was 29.5 µM. It also gave a TGI [15] greater than 100 µM, a TGI [16] greater than 100 µM and a TGI [17] greater than 100 µM.
Molecule Cc1n[n+](CC(=O)c2ccccc2)c2sc(N)nn12 has a TGI [1] greater than 100 µM, a TGI [3] greater than 100 µM and a TGI [4] greater than 100 µM. It also gave a TGI [5] greater than 100 µM, a TGI [6] greater than 100 µM and a TGI [7] greater than 100 µM. For the same molecule, the TGI [8] was greater than 100 µM, the TGI [9] was greater than 100 µM and the TGI [10] was greater than 100 µM. It also gave a TGI [18] greater than 100 µM, a TGI [11] greater than 100 µM and a TGI [12] greater than 100 µM. It also gave a TGI [14] greater than 100 µM, a TGI [19] greater than 100 µM and a TGI [15] greater than 100 µM. The TGI [16] was greater than 100 µM and the TGI [17] was greater than 100 µM.
With C/C(=C/c1ccccc1)CN(C(=O)/C=C\Sc1ccccc1)C(C)(C)C the TGI [1] was greater than 100 µM, the TGI [2] was greater than 100 µM and the TGI [3] was greater than 100 µM. For the same molecule, the TGI [4] was greater than 100 µM, the TGI [5] was greater than 100 µM and the TGI [6] was greater than 100 µM. For the same molecule, the TGI [7] was greater than 100 µM, the TGI [8] was greater than 100 µM and the TGI [9] was greater than 100 µM. For the same molecule, the TGI [10] was greater than 100 µM, the TGI [18] was greater than 100 µM and the TGI [11] was greater than 100 µM. For the same molecule, the TGI [12] was greater than 100 µM, the TGI [13] was greater than 100 µM and the TGI [14] was greater than 47.8 µM. It also gave a TGI [19] greater than 46.4 µM, a TGI [15] greater than 100 µM and a TGI [16] greater than 100 µM. For the same molecule, the TGI [17] was greater than 100 µM.
O=C(Nc1ccc(Cl)cc1)NS(=O)(=O)c1coc2ccccc2c1=O showed a TGI [1] greater than 10 µM, a TGI [2] greater than 10 µM and a TGI [3] greater than 10 µM. For the same molecule, the TGI [4] was greater than 10 µM, the TGI [5] was greater than 10 µM and the TGI [6] was greater than 10 µM. The TGI [7] was greater than 10 µM, the TGI [8] was greater than 10 µM and the TGI [9] was greater than 10 µM. The TGI [10] was greater than 10 µM, the TGI [18] was greater than 10 µM and the TGI [11] was greater than 10 µM. It also gave a TGI [12] greater than 10 µM, a TGI [13] greater than 10 µM and a TGI [14] greater than 10 µM. It also gave a TGI [19] greater than 10 µM, a TGI [15] greater than 10 µM and a TGI [16] greater than 10 µM. For the same molecule, the TGI [17] was greater than 10 µM.
In the case of CCCCC(C(=O)N/N=C/c1ccc([N+](=O)[O-])o1)C(=O)N/N=C/c1ccc([N+](=O)[O-])o1, the TGI [1] is reported as 3.4 µM, the TGI [2] is reported as 6.71 µM and the TGI [3] is reported as 33.5 µM. The TGI [4] was 5.58 µM, the TGI [5] was 5.16 µM and the TGI [6] was 26.6 µM. It also gave a TGI [7] of 14.6 µM, a TGI [8] of 13.6 µM and a TGI [9] of 31.4 µM. For the same molecule, the TGI [10] was 10.3 µM, the TGI [18] was 12.3 µM and the TGI [11] was 41 µM. For the same molecule, the TGI [12] was 6.71 µM, the TGI [13] was 35.5 µM and the TGI [14] was 5.57 µM. The TGI [15] was 14.4 µM, the TGI [16] was 13.7 µM and the TGI [17] was 15.4 µM.
With [O-]c1c[n+](CCCC[n+]2cc([O-])on2)no1 the TGI [1] was greater than 100 µM, the TGI [2] was greater than 100 µM and the TGI [3] was greater than 100 µM. The TGI [4] was greater than 100 µM, the TGI [5] was greater than 100 µM and the TGI [6] was greater than 100 µM. The TGI [7] was greater than 100 µM, the TGI [8] was greater than 100 µM and the TGI [9] was greater than 100 µM. For the same molecule, the TGI [10] was greater than 100 µM, the TGI [18] was greater than 100 µM and the TGI [11] was greater than 100 µM. It also gave a TGI [12] greater than 100 µM, a TGI [13] greater than 100 µM and a TGI [14] greater than 100 µM. It also gave a TGI [19] greater than 100 µM, a TGI [15] greater than 100 µM and a TGI [16] greater than 100 µM. The TGI [17] was greater than 100 µM.
With Cc1ccccc1[P+](C)(c1ccccc1C)c1ccccc1C the TGI [1] was 18.1 µM, the TGI [3] was 40.8 µM and the TGI [4] was 0.0867 µM. The TGI [5] was 19.1 µM, the TGI [6] was 35 µM and the TGI [7] was 16.8 µM. For the same molecule, the TGI [8] was 41.1 µM, the TGI [10] was 28.4 µM and the TGI [18] was 43.9 µM. The TGI [11] was 49.9 µM, the TGI [12] was 39.1 µM and the TGI [13] was 40.8 µM. For the same molecule, the TGI [14] was 55 µM, the TGI [19] was 21.6 µM and the TGI [15] was 55.2 µM. It also gave a TGI [16] of 37.4 µM.
Work on C=CCOc1ccc(/C(N=Nc2ccc(C)cc2)=N/NC(=O)c2ccccc2)cc1OC yielded a TGI [1] greater than 100 µM, a TGI [2] of 29 µM and a TGI [3] of 65.6 µM. For the same molecule, the TGI [4] was 41.1 µM, the TGI [5] was greater than 100 µM and the TGI [6] was greater than 100 µM. The TGI [7] was 31.9 µM, the TGI [8] was 58.3 µM and the TGI [9] was greater than 100 µM. The TGI [10] was greater than 100 µM, the TGI [18] was greater than 100 µM and the TGI [11] was 72 µM. For the same molecule, the TGI [12] was greater than 100 µM, the TGI [14] was 87.6 µM and the TGI [19] was 49.6 µM. For the same molecule, the TGI [15] was greater than 100 µM, the TGI [16] was greater than 100 µM and the TGI [17] was 48.7 µM.
Molecule Cc1ccc2c3c(cnc2n1)C(=O)OCCN3C has a TGI [1] greater than 100 µM, a TGI [2] greater than 100 µM and a TGI [4] greater than 100 µM. The TGI [5] was greater than 100 µM, the TGI [6] was greater than 100 µM and the TGI [7] was greater than 100 µM. It also gave a TGI [8] greater than 100 µM, a TGI [9] greater than 100 µM and a TGI [10] greater than 100 µM. For the same molecule, the TGI [18] was greater than 100 µM, the TGI [11] was greater than 100 µM and the TGI [12] was greater than 100 µM. The TGI [13] was greater than 100 µM, the TGI [14] was greater than 100 µM and the TGI [19] was greater than 100 µM. It also gave a TGI [15] greater than 100 µM, a TGI [16] greater than 100 µM and a TGI [17] greater than 100 µM.
